Reference: patent publication US11420966B2 (ACLARIS THERAPEUTICS, INC., priority 2019, dated 2022)

Legend:
[1] = tested on: IL-2 stimulated STAT5 phosphorylation on Tyr694 (JAK1/3); assay: JAK1/3 cellular target modulation: IL-2 stimulated phospho-STAT5 in PBMC; format: cell-based; conditions: human PBMC, IL-2 25 ng/ml; read-out: IL2-STAT5 IC50
Procedure, shortened: (§1)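 Thawed human PBMC (200,000/well, RPMI/10% FBS) were preincubated with compound for 1 h at 37 °C, added from 10× stocks in 1% DMSO. Stimulation and read-out: IL-2 25 ng/ml, 5 min, pSTAT5 by MSD; IL-12 1.7 ng/ml, 25 min, pSTAT4 by MSD; IFNγ 10 ng/ml, 10 min, pSTAT1 by sandwich ELISA.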

JAK3 (a.a. 781-1124) = JAK3 (a.a. 781-1124) (Homo sapiens (Human), UniProt P52333); assay: JAK3 enzyme activity assay (SRCtide phosphorylation, Caliper); format: biochemical; conditions: 1 uM ATP; read-out: JAK3 Inhibition IC50
JAK3 (a.a. 781-1124), sequence (P52333 781-1124): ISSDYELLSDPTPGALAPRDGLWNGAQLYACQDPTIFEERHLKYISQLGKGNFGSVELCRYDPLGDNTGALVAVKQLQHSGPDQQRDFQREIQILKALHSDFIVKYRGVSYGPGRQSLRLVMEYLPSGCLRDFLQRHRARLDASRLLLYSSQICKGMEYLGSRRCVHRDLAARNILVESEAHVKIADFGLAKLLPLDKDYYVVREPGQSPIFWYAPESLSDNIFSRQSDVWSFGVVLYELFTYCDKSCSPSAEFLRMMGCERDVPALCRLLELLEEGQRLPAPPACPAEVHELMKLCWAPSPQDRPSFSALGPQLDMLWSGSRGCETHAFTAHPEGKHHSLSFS

JAK1 = JAK1 (Homo sapiens (Human), UniProt P23458); assay: JAK1 enzyme activity assay (Thermo Fisher SelectScreen, Z-lyte); format: biochemical; conditions: read-out: JAK1 Inhibition IC50
JAK1, sequence (P23458 whole entry): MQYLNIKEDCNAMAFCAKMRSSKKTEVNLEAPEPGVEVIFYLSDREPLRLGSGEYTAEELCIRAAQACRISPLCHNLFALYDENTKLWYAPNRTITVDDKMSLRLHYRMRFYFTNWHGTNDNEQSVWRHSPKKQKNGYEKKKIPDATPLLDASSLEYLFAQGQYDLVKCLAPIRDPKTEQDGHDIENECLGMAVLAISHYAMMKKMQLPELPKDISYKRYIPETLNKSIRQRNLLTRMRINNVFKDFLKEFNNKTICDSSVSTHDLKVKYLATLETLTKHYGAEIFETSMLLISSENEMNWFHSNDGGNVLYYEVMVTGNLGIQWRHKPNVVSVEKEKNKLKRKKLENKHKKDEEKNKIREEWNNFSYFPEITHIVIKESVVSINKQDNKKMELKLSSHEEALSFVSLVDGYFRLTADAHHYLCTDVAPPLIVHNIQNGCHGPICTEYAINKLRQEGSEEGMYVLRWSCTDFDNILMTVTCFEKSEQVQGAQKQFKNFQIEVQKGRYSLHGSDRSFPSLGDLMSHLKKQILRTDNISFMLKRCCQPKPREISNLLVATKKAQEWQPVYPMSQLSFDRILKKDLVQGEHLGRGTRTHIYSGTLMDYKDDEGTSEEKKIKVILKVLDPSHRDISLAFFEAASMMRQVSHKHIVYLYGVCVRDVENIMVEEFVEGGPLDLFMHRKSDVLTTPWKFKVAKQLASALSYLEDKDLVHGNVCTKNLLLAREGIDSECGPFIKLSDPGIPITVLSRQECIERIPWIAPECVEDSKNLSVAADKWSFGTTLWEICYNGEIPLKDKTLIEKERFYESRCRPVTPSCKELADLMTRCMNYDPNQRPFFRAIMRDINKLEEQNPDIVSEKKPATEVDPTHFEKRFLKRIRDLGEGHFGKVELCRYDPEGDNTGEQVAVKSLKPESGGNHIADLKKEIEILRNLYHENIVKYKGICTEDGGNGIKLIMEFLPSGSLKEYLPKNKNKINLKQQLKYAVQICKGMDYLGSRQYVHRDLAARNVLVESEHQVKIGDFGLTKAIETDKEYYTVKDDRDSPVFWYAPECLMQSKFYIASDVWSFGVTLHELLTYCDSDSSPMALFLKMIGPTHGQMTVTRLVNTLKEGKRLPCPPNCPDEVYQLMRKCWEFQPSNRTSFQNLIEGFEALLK
Procedure, shortened: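 Z-lyte assay with 21.2-91.5 ng JAK and […] Tyr 06 in 50 mM HEPES pH 7.0, 10 mM MgCl2, 1 mM EGTA, 0.01% BRIJ-35; 1 h kinase reaction, then development reagent. 11-point dose-response from […] to 0.34 nM, 2% DMSO vehicle; IC50 from 4-parameter logistic fit of emission ratio.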

[2] = tested on: IFNγ stimulated STAT1 phosphorylation on Tyr701 (JAK1/2); assay: JAK1/2 cellular target modulation: IFNγ stimulated phospho-STAT1 in PBMC; format: cell-based; conditions: human PBMC, IFNγ 10 ng/ml; read-out: Infγ-STAT1 IC50
Procedure, shortened: as §1

JAK2 = JAK2 (Homo sapiens (Human), UniProt O60674); assay: JAK2 enzyme activity assay (Thermo Fisher SelectScreen, Z-lyte); format: biochemical; conditions: read-out: JAK2 Inhibition IC50
JAK2, sequence (O60674 whole entry): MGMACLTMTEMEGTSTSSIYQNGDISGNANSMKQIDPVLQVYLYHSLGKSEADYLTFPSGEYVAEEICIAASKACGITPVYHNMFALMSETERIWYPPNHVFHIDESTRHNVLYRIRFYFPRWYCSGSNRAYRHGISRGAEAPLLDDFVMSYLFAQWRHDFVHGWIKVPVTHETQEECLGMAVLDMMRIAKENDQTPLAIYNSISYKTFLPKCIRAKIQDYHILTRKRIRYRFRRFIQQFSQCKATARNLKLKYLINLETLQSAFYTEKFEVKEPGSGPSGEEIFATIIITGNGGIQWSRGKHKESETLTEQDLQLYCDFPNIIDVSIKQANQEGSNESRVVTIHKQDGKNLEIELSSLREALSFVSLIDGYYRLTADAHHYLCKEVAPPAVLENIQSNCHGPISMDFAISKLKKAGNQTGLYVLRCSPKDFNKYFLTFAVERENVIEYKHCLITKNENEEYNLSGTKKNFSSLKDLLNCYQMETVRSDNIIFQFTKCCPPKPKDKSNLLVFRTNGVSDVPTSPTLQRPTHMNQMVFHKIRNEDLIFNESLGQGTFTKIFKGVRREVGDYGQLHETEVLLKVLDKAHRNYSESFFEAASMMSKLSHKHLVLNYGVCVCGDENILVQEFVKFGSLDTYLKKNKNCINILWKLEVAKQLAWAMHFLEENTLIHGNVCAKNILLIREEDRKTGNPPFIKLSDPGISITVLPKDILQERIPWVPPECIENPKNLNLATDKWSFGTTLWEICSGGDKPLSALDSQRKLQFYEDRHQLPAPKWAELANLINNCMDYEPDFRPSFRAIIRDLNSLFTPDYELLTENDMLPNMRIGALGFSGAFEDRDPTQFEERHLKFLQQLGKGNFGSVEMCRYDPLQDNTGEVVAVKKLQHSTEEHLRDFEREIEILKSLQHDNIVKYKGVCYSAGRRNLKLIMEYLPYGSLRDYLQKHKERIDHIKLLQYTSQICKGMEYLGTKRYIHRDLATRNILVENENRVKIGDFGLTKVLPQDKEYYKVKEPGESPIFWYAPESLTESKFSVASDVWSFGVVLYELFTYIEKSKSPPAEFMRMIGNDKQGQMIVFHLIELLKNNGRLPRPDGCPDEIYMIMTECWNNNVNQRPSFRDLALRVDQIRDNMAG
Procedure, shortened: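 Z-lyte FRET kinase assay: 0.12-0.5 ng JAK2 with […] Tyr 06 peptide in 50 mM HEPES pH 7.5, 0.01% BRIJ-35, 10 mM MgCl2, 1 mM EGTA, 1 h reaction before development reagent. 11-point dose-response from […] to 0.34 nM, 2% DMSO; IC50 from 4-parameter fit of emission ratio.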

Tyk-2 = Tyk-2 (Homo sapiens (Human), UniProt P29597); assay: Tyk-2 enzyme activity assay (Thermo Fisher SelectScreen, Z-lyte); format: biochemical; conditions: read-out: Tyk-2 Inhibition IC50
Tyk-2, sequence (P29597 whole entry): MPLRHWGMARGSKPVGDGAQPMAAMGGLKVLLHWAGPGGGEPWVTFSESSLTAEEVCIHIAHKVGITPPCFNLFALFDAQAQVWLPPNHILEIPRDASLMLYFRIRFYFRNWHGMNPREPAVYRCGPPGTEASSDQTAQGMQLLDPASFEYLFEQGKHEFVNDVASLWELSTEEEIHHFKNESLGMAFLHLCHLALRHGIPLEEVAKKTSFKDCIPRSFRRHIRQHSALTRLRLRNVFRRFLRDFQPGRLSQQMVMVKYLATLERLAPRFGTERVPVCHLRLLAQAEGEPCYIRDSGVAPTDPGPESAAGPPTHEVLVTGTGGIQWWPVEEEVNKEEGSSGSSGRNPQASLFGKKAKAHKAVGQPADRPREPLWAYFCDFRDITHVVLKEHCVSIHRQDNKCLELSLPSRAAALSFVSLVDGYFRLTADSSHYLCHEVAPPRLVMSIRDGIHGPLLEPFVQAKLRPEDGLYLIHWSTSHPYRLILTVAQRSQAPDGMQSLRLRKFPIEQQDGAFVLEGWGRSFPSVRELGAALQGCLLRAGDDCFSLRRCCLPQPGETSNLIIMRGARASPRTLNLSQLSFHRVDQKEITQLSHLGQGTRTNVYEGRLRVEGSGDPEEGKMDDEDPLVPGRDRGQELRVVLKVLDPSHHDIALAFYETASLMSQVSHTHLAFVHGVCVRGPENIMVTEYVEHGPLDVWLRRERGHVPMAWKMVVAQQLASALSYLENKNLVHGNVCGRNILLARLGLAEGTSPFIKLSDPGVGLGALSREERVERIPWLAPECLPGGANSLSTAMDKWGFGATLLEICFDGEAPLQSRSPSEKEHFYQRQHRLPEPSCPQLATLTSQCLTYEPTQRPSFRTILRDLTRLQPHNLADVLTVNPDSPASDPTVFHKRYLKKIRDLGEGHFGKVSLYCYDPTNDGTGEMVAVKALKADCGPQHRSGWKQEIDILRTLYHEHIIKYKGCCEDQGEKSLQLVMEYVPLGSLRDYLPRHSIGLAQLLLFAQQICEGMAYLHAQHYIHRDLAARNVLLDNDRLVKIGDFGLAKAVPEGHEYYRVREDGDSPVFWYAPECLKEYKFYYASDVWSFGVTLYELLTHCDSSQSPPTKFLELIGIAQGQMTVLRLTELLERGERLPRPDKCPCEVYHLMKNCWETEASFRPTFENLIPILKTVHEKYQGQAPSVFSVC
Procedure, shortened: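 Z-lyte FRET assay: 3.75–15 ng TYK2 with […] Tyr 03 peptide in HEPES pH 7.0, MgCl2, EGTA, BRIJ-35; 1 h reaction, then development reagent. 11-point dose-response, 2% DMSO; IC50 via 4-parameter fit of emission ratio, background without enzyme.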

[3] = tested on: IL-12 stimulated STAT4 phosphorylation on Tyr693 (JAK2/TYK2); assay: JAK2/TYK2 cellular target modulation: IL-12 stimulated phospho-STAT4 in PBMC; format: cell-based; conditions: human PBMC, IL-12 1.7 ng/ml; read-out: IL12-STAT4 IC50
Procedure, shortened: as §1

Row | SMILES | IC50 [1] | IC50 (JAK3 (a.a. 781-1124)) | IC50 (JAK1) | IC50 [2] | IC50 (JAK2) | IC50 (Tyk-2) | IC50 [3]
1 | C[S+]([O-])c1cnc(-c2cnc3[nH]ccc3c2N[C@@H]2CCCN(C(=O)CC#N)C2)s1 (stereo partly drawn) [Example 45, 3-((3R)-3-((5-(5-(methylsulfinyl)thiazol-2-yl)-1H-pyrrolo[2,3-b]pyridin-4-yl)amino)piperidin-1-yl)-3-oxopropanenitrile] | 100 to 1000 nM | ≤ 10 nM | ≤ 10 nM | 100 to 1000 nM | ≤ 10 nM | ≤ 10 nM | > 1000 nM
2 | CS(=O)(=O)c1cnc(-c2cnc3[nH]ccc3c2N[C@@H]2CCCN(CCC#N)C2)s1 [Example 47, (R)-3-(3-((5-(5-(methylsulfonyl)thiazol-2-yl)-1H-pyrrolo[2,3-b]pyridin-4-yl)amino)piperidin-1-yl)propanenitrile] | 100 to 1000 nM | 10 to 100 nM | 10 to 100 nM | > 1000 nM | 10 to 100 nM | 10 to 100 nM | > 1000 nM
3 | N#CCC(=O)N1CCC[C@@H](Nc2c(-c3ccnc(N)n3)cnc3[nH]ccc23)C1 [Example 51, (R)-3-(3-((5-(2-aminopyrimidin-4-yl)-1H-pyrrolo[2,3-b]pyridin-4-yl)amino)piperidin-1-yl)-3-oxopropanenitrile] | 100 to 1000 nM | ≤ 10 nM | ≤ 10 nM | 100 to 1000 nM | ≤ 10 nM | 10 to 100 nM | > 1000 nM
4 | C[C@H]1C[C@@H](Nc2c(-c3cccc(CO)n3)cnc3[nH]ccc23)CN(C(=O)CC#N)C1 [Example 64, 3-((3R,5S)-3-((5-(6-(hydroxymethyl)pyridin-2-yl)-1H-pyrrolo[2,3-b]pyridin-4-yl)amino)-5-methylpiperidin-1-yl)-3-oxopropanenitrile] | ≤ 100 nM | ≤ 10 nM | ≤ 10 nM | ≤ 100 nM | ≤ 10 nM | ≤ 10 nM | > 1000 nM
5 | C[C@H]1C[C@@H](Nc2c(-c3ncc(S(C)(=O)=O)s3)cnc3[nH]ccc23)CN(C(=O)CC#N)C1 [Example 65, 3-((3S,5R)-3-methyl-5-((5-(5-(methylsulfonyl)thiazol-2-yl)-1H-pyrrolo[2,3-b]pyridin-4-yl)amino)piperidin-1-yl)-3-oxopropanenitrile] | ≤ 100 nM | ≤ 10 nM | ≤ 10 nM | ≤ 100 nM | ≤ 10 nM | ≤ 10 nM | ≤ 100 nM
6 | C[C@H]1C[C@@H](Nc2c(-c3nccs3)cnc3[nH]ccc23)CN(CC2CC2(F)F)C1 (stereo partly drawn) [Example 67, N-((3R,5S)-1-((2,2-difluorocyclopropyl)methyl)-5-methylpiperidin-3-yl)-5-(thiazol-2-yl)-1H-pyrrolo[2,3-b]pyridin-4-amine] | 100 to 1000 nM | ≤ 10 nM | 10 to 100 nM | 100 to 1000 nM | 10 to 100 nM | 10 to 100 nM | > 1000 nM
7 | C[C@H]1C[C@@H](Nc2c(-c3nncs3)cnc3[nH]ccc23)CN(C(=O)CC#N)C1 [Example 68, 3-((3R,5S)-3-((5-(1,3,4-thiadiazol-2-yl)-1H-pyrrolo[2,3-b]pyridin-4-yl)amino)-5-methylpiperidin-1-yl)-3-oxopropanenitrile] | ≤ 100 nM | ≤ 10 nM | ≤ 10 nM | ≤ 100 nM | ≤ 10 nM | ≤ 10 nM | ≤ 100 nM

Second part, the compound after the results:

Row | IC50 [1] | IC50 (JAK3 (a.a. 781-1124)) | IC50 (JAK1) | IC50 [2] | IC50 (JAK2) | IC50 (Tyk-2) | IC50 [3] | SMILES
8 | ≤ 100 nM | ≤ 10 nM | ≤ 10 nM | ≤ 100 nM | ≤ 10 nM | ≤ 10 nM | 100 to 1000 nM | CS(=O)(=O)c1cnc(-c2cnc3[nH]ccc3c2N[C@@H]2CCCN(C(=O)CC#N)C2)s1 [Example 46, (R)-3-(3-((5-(5-(methylsulfonyl)thiazol-2-yl)-1H-pyrrolo[2,3-b]pyridin-4-yl)amino)piperidin-1-yl)-3-oxopropanenitrile]
9 | ≤ 100 nM | 10 to 100 nM | ≤ 10 nM | 100 to 1000 nM | 10 to 100 nM | 10 to 100 nM | > 1000 nM | CS(=O)(=O)c1cnc(-c2cnc3[nH]ccc3c2N[C@@H]2CCCN(C(=O)CC#N)C2)o1 [Example 48, (R)-3-(3-((5-(5-(methylsulfonyl)oxazol-2-yl)-1H-pyrrolo[2,3-b]pyridin-4-yl)amino)piperidin-1-yl)-3-oxopropanenitrile]
10 | ≤ 100 nM | ≤ 10 nM | ≤ 10 nM | ≤ 100 nM | 10 to 100 nM | 10 to 100 nM | > 1000 nM | CSc1nccc(-c2cnc3[nH]ccc3c2N[C@@H]2CCCN(C(=O)CC#N)C2)n1 [Example 49, (R)-3-(3-((5-(2-(methylthio)pyrimidin-4-yl)-1H-pyrrolo[2,3-b]pyridin-4-yl)amino)piperidin-1-yl)-3-oxopropanenitrile]
11 | ≤ 100 nM | ≤ 10 nM | ≤ 10 nM | ≤ 100 nM | ≤ 10 nM | ≤ 10 nM | 100 to 1000 nM | Cc1nccc(-c2cnc3[nH]ccc3c2N[C@@H]2C[C@H](C)CN(C(=O)CC#N)C2)n1 [Example 52, 3-((3S,5R)-3-methyl-5-((5-(2-methylpyrimidin-4-yl)-1H-pyrrolo[2,3-b]pyridin-4-yl)amino)piperidin-1-yl)-3-oxopropanenitrile]
12 | ≤ 100 nM | ≤ 10 nM | ≤ 10 nM | 100 to 1000 nM | 10 to 100 nM | ≤ 10 nM | > 1000 nM | CS(=O)(=O)c1ccc(-c2cnc3[nH]ccc3c2N[C@@H]2CCCN(C(=O)CC#N)C2)nc1 [Example 55, (R)-3-(3-((5-(5-(methylsulfonyl)pyridin-2-yl)-1H-pyrrolo[2,3-b]pyridin-4-yl)amino)piperidin-1-yl)-3-oxopropanenitrile]
13 | ≤ 100 nM | ≤ 10 nM | ≤ 10 nM | 100 to 1000 nM | ≤ 10 nM | 10 to 100 nM | > 1000 nM | N#CCC(=O)N1CCC[C@@H](Nc2c(-c3ccn(CCO)n3)cnc3[nH]ccc23)C1 [Example 62, (R)-3-(3-((5-(1-(2-hydroxyethyl)-1H-pyrazol-3-yl)-1H-pyrrolo[2,3-b]pyridin-4-yl)amino)piperidin-1-yl)-3-oxopropanenitrile]
14 | ≤ 100 nM | ≤ 10 nM | ≤ 10 nM | 100 to 1000 nM | ≤ 10 nM | 10 to 100 nM | > 1000 nM | N#CCC(=O)N1CCC[C@@H](Nc2c(-c3cccc(CO)n3)cnc3[nH]ccc23)C1 [Example 63]
